What all share (assay): NCI tumour cell line growth inhibition, 48 h
Test [1] deals with CCRF-CEM leukemia.
In test [2] the test system is MALME-3M melanoma.
Test [3] deals with SF-268 CNS.
For test [4], the system named is M14 melanoma.
Test [5] concerns OVCAR-5 ovarian.
For test [6], the system named is SF-295 CNS.
For test [7], the system named is 786-0 renal.
Test [8] deals with EKVX NSCLC.
In test [9] the test system is MDA-MB-435.
Test [10] concerns SK-MEL-2 melanoma.
Test [11] relates to HOP-62 NSCLC.
Test [12] deals with SNB-75 CNS.

The structures appear in SMILES notation.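 Test compounds were applied to cells in 96-well plates for 48 hours at 5 doses. TGI marks complete inhibition of growth.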

For the molecule `CN(C)c1ccc(/C=C2\N=C(NN)NC2=O)cc1`, the TGI in test [1], in test [2], in [3], in test [4], in test [5] and in [6] was over 100 µM in each case. The TGI in test [7], in [8], in test [9], in [10], in test [11] and in test [12] was over 100 µM throughout.
With `Cc1ccc(N=Nc2c(O)ccc3cc(S(=O)(=O)O)ccc23)c(C)c1`, the TGI in test [1], in test [2], in test [3], in test [4], in test [5] and in test [6] was over 100 µM each time. For the same molecule, the TGI in [7], in test [8], in test [9], in test [10], in [11] and in test [12] was over 100 µM in each case.
On to `COc1cc(OC)c2c(O)c3c(cc2c1)CC(C)(C)CC3=O`, for which the TGI in test [1], in test [2], in test [3], in test [4], in [5] and in test [6] was over 100 µM in each case. In addition, the TGI in test [7], in test [8], in test [9], in test [10], in test [11] and in test [12] was over 100 µM throughout.
`O=C1Sc2ccc(Br)cc2C(=O)Sc2ccccc21`: the TGI in test [1] worked out at 7.47 µM; in test [2] it was 23.6 µM; in test [3], 22.3 µM; in test [4], 26.6 µM; in test [5], 36.8 µM; in test [6], 57.5 µM. For the same molecule, the TGI was determined as 25.6 µM in test [7]; 22.2 µM in test [8]; 21.7 µM in [9]; 36.6 µM in [10]; 28.4 µM in test [11]; 26.1 µM in test [12].
Turning to `O=C1C(NCCc2ccc(O)c(O)c2)=CC(=O)c2ncccc21`, the TGI was 60.4 µM in [1]; 18.4 µM in test [2]; 66.5 µM in test [3]; 40.5 µM in test [4]; 40.2 µM in test [5]; 28.5 µM in test [6]. Moreover, the TGI stood at 43.2 µM in test [7]; 52 µM in test [8]; 3.28 µM in [9]; 21.5 µM in test [10]; 49.9 µM in test [11]; 29.4 µM in test [12].
As to `c1ccc(C2=Nc3nc4ccccc4n3C(c3ccccc3)C2)cc1` (centres undefined), the TGI in test [1], in test [2], in test [3], in test [4], in test [5] and in test [6] was over 100 µM in each case. In addition, the TGI in test [7], in [8], in test [9], in test [10], in test [11] and in test [12] was over 100 µM throughout.
Regarding `Clc1cc2c(c(CSC3=NCN(CC4CC4)CN3)c1)OCOC2`, the TGI in [1] is 27.2 µM; in test [2], 34.2 µM; in test [3], 98.3 µM; in test [4], 27.9 µM; in test [5], 48.9 µM; in test [6], over 100 µM. The TGI in test [7] stood at 52.2 µM; in test [8] it was 53.4 µM; in test [9], 74.3 µM; in [10], 35.4 µM; in [11], 86.7 µM; in test [12], 39.6 µM.
